pEC50, pIC50: −log10 of the molar value.
Tests used:
AuroraA-TPX2 = target: T1, AuroraA-TPX2 (Homo sapiens, UniProt O14965); experiment: AuroraA-TPX2 Homogeneous Time Resolved Fluorescent (HTRF) kinase assay; assay type: biochemical; settings: average; given as class symbols; read-out: AurA/TP X2_ IC50_IP (Avg)
T1 construct: 20 µL of AuroraA-TPX2 KD GST; GST
T1 sequence (O14965 133-383 limits assumed): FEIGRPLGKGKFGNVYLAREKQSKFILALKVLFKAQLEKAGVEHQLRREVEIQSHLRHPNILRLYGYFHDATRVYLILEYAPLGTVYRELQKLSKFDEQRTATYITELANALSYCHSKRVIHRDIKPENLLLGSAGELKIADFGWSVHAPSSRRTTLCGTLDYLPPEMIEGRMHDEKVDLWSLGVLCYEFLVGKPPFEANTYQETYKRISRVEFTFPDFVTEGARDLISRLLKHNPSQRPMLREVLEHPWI
T1 sequence (Q9ULW0 1-43 partner limits assumed): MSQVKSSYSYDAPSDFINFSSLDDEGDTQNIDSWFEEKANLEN
Outline: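 HTRF read-out: europium anti-phosphoPLK antibody (0.02 nM) plus streptavidin-APC detect phosphorylated biotin-PLK after EDTA stop and overnight equilibration. Kinase step runs about 120 min with Aurora-A/TPX2, ATP and roughly 1 µM PLK peptide at pH 7.5 HEPES buffer with Mg2+ and DTT.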

[1] = system: phosphorylation of Histone H3; experiment: HeLa cell 1-hour phospho-histone assay; assay type: cell-based; settings: Homo sapiens, HeLa, 1 h, HeLa cells, 1 hour; average; given as class symbols; read-out: pHH3 EC50_IP (Avg)
Outline: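 HeLa cells were exposed to serially diluted compounds for 1 hour at 37 °C (0.5% DMSO final), then fixed, permeabilized and immunostained for phospho-histone H3 (Ser10) with Hoechst counterstain. High-content imaging scored the percentage of pHH3-positive cells.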

AuroraB = target: T2, AuroraB (Homo sapiens, UniProt Q96GD4); experiment: AuroraB Homogeneous Time Resolved Fluorescent (HTRF) kinase assay; assay type: biochemical; settings: average; given as class symbols; read-out: AurB_ _IC50_IP (Avg)
T2 construct: 20 µL of AuroraB FL His; His
Outline: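 HTRF read-out: after EDTA stop and ~60 min with europium anti-phospho-H3 antibody and streptavidin-APC, 655/615 nm ratio reports phosphorylation. Reaction: 400 pM AuroraB FL His, 23 µM ATP (at Km(app)), 0.1 µM biotin-Histone H3 peptide, 50 mM HEPES pH 7.5, MgCl/MnCl, ~90 min.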

T2 sequence (Q96GD4 whole entry): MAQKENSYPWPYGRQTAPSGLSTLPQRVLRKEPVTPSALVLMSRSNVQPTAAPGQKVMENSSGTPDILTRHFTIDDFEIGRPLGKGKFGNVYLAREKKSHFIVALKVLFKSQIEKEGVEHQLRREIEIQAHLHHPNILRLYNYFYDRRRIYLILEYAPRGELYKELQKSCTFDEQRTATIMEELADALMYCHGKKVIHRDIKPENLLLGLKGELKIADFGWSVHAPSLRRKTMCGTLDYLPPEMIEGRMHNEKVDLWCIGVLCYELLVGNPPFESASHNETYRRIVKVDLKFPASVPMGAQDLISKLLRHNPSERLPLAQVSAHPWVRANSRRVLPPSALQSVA

Row | pIC50 (AuroraA-TPX2) | pEC50 [1] | pIC50 (AuroraB) | Compound
1 | ≥ 7.00 | 6.30 to 7.00 | ≥ 7.00 | CCN(CCO)CCCCNc1nccc(-c2cccnc2Oc2ccc(Nc3nnc(-c4ccccc4)cc3C)cc2)n1 [compound 348, 2-(ethyl(4-((4-(2-((4-((4-methyl-6-phenyl-3-pyridazinyl)amino)phenyl)oxy)-3-pyridinyl)-2-pyrimidinyl)amino)butyl)amino)ethanol]
2 | ≥ 7.00 | 6.30 to 7.00 | ≥ 7.00 | CCN(CCO)CCCNc1nccc(-c2cccnc2Oc2ccc(Nc3nnc(-c4ccccc4)cc3C)cc2)n1 [compound 350, 2-(ethyl(3-((4-(2-((4-((4-methyl-6-phenyl-3-pyridazinyl)amino)phenyl)oxy)-3-pyridinyl)-2-pyrimidinyl)amino)propyl)amino)ethanol]
3 | ≥ 7.00 | 6.30 to 7.00 | ≥ 7.00 | Cc1cc(-c2ccccc2)nnc1Nc1ccc(Oc2ncccc2-c2ccnc(NCCCN3CCN(C)CC3)n2)cc1 [compound 422, 4-methyl-N-(4-((3-(2-((3-(4-methyl-1-piperazinyl)propyl)amino)-4-pyrimidinyl)-2-pyridinyl)oxy)phenyl)-6-phenyl-3-pyridazinamine]
4 | ≥ 7.00 | 6.30 to 7.00 | ≥ 7.00 | CCN(CC)CCCNc1nccc(-c2cccnc2Oc2ccc(Nc3nnc(-c4ccccc4)cc3C)cc2)n1 [compound 426, N,N-diethyl-N'-(4-(2-((4-((4-methyl-6-phenyl-3-pyridazinyl)amino)phenyl)oxy)-3-pyridinyl)-2-pyrimidinyl)-1,3-propanediamine]

The remaining lines, values behind:

Row | Compound | pIC50 (AuroraA-TPX2) | pEC50 [1] | pIC50 (AuroraB)
5 | CC(O)c1cccc(-c2nnc(Nc3ccc(Oc4ncccc4-c4ccnc(N)n4)cc3)c3ccccc23)c1 (stereo not drawn) [compound 346, 1-(3-(4-((4-((3-(2-amino-4-pyrimidinyl)-2-pyridinyl)oxy)phenyl)amino)-1-phthalazinyl)phenyl)ethanol] | ≥ 7.00 | 6.30 to 7.00 | ≥ 7.00
6 | CCN(CCO)CCCCNc1nccc(-c2cccnc2Oc2ccc(Nc3nnc(-c4ccccc4)c4ccccc34)cc2)n1 [compound 347, 2-(ethyl(4-((4-(2-((4-((4-phenyl-1-phthalazinyl)amino)phenyl)oxy)-3-pyridinyl)-2-pyrimidinyl)amino)butyl)amino)ethanol] | ≥ 7.00 | ≥ 7.00 | ≥ 7.00
7 | CCN(CCO)CCCNc1nccc(-c2cccnc2Oc2ccc(Nc3nnc(-c4ccccc4)c4ccccc34)cc2)n1 [compound 349, 2-(ethyl(3-((4-(2-((4-((4-phenyl-1-phthalazinyl)amino)phenyl)oxy)-3-pyridinyl)-2-pyrimidinyl)amino)propyl)amino)ethanol] | 6.30 to 7.00 | 6.30 to 7.00 | ≥ 7.00
8 | Cc1cc(-c2ccccc2)nnc1Nc1ccc(Oc2ncccc2-c2ccncc2)cc1 [compound 417, N-(4-(3,4'-bipyridin-2-yloxy)phenyl)-4-methyl-6-phenyl-3-pyridazinamine] | ≥ 7.00 | 5.60 to 6.30 | ≥ 7.00
9 | O=S(=O)(O)CCCNc1nccc(-c2cccnc2Oc2ccc(Nc3nnc(-c4ccccc4)c4ccccc34)cc2)n1 [compound 421, 3-((4-(2-((4-((4-phenyl-1-phthalazinyl)amino)phenyl)oxy)-3-pyridinyl)-2-pyrimidinyl)amino)-1-propanesulfonic acid] | 6.30 to 7.00 | 5.60 to 6.30 | 6.30 to 7.00
10 | Cc1cc(-c2ccccc2)nnc1Nc1ccc(Oc2ncccc2-c2ccnc(NCCCCN(C)C)n2)cc1 [compound 423, N,N-dimethyl-N'-(4-(2-((4-((4-methyl-6-phenyl-3-pyridazinyl)amino)phenyl)oxy)-3-pyridinyl)-2-pyrimidinyl)-1,4-butanediamine] | ≥ 7.00 | 6.30 to 7.00 | ≥ 7.00
11 | Cc1cc(-c2ccccc2)nnc1Nc1ccc(Oc2ncccc2-c2ccnc(NCCCN3CCCCC3)n2)cc1 [compound 424, 4-methyl-6-phenyl-N-(4-((3-(2-((3-(1-piperidinyl)propyl)amino)-4-pyrimidinyl)-2-pyridinyl)oxy)phenyl)-3-pyridazinamine] | ≥ 7.00 | 6.30 to 7.00 | ≥ 7.00
12 | Cc1cc(-c2ccccc2)nnc1Nc1ccc(Oc2ncccc2-c2ccnc(NCCCN3CCCC3)n2)cc1 [compound 425, 4-methyl-6-phenyl-N-(4-((3-(2-((3-(1-pyrrolidinyl)propyl)amino)-4-pyrimidinyl)-2-pyridinyl)oxy)phenyl)-3-pyridazinamine] | ≥ 7.00 | 6.30 to 7.00 | ≥ 7.00
13 | Nc1nccc(-c2cccnc2Oc2ccc(Nc3nnc(-c4ccccc4)cc3C(=O)O)cc2)n1 [compound 433, 3-((4-((3-(2-amino-4-pyrimidinyl)-2-pyridinyl)oxy)phenyl)amino)-6-phenyl-4-pyridazinecarboxylic acid] | 5.60 to 6.30 | 5.60 to 6.30 | 5.60 to 6.30

Source: patent EP1984353B1, “AURORA KINASE MODULATORS AND METHOD OF USE” (Amgen, Inc, priority 2006, dated 2007)
